Biological target: T1, MorFDH (NAD+-dependent formate dehydrogenase from Moraxella sp. C-1) (Moraxella sp., UniProt O08375)
T1 construct: gene fdh; homodimer; 399 residues located, last two C-terminal residues not seen
T1 sequence (O08375 2-402): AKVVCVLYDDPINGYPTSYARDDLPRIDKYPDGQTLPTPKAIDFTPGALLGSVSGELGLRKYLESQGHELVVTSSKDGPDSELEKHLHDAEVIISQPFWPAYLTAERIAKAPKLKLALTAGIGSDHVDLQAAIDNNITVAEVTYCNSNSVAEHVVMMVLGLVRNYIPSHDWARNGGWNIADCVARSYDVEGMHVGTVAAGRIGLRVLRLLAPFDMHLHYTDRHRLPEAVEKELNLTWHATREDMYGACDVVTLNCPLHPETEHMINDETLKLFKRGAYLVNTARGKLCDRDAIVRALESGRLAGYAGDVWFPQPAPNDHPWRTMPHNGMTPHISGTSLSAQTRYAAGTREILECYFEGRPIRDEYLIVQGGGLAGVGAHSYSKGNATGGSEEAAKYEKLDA
Assay: X-ray crystal structure, […] A
Type: binding
Details: active site, co-crystallised with 5 mM NAD+ and 5 mM sodium azide, protein in pH 7.0 phosphate, reservoir pH 6.5, 20 C

SMILES | X-ray crystal structure, 1.1 A (ternary complex with azide) | X-ray crystal structure, 1.1 A (ternary complex with NAD+, inhibitor, transition-state mimic)
NC(=O)c1ccc[n+]([C@@H]2O[C@H](COP(=O)(O)OP(=O)(O)OC[C@H]3O[C@@H](n4cnc5c(N)ncnc54)[C@H](O)[C@@H]3O)[C@@H](O)[C@H]2O)c1 [NAD+] | The NAD ^+ molecule and one azide ion are bound in the active site of the enzyme | –
[N-]=[N+]=[N-] [azide ion] | – | The NAD ^+ molecule and one azide ion are bound in the active site of the enzyme

From paper PMC3347530, “Atomic Resolution Crystal Structure of NAD^+-Dependent Formate Dehydrogenase from Bacterium Moraxella sp. C-1” (Acta Naturae, 2009)
